Values joined by “and” are separate entries in the source; they are usually repeats but may differ in a detail not shown here. Identical values can stand only once. Active and inactive are the calls of the source. The rule behind the calls is not given here.
How the values were obtained:
[1] = 1-Octanol/saturated PBS buffer distribution coefficient, logD of the compound incubated for 1 hr by LC-MS/MS analysis; type: physicochemical
[2] = biological target: T1, Solute carrier organic anion transporter family member 1B3 (Homo sapiens, UniProt Q9NPD5); test: Substrate activity at OATP1B3 (unknown origin) expressed in HEK293 cells assessed as ratio of drug uptake in absence of transporter inhibitor, estradiol-17beta-glucuronide to drug uptake in presence of transporter inhibitor, estradiol-17beta-glucuronide by LC-MS/MS analysis; type: ADME, cell-based
T1 sequence (Q9NPD5 whole entry): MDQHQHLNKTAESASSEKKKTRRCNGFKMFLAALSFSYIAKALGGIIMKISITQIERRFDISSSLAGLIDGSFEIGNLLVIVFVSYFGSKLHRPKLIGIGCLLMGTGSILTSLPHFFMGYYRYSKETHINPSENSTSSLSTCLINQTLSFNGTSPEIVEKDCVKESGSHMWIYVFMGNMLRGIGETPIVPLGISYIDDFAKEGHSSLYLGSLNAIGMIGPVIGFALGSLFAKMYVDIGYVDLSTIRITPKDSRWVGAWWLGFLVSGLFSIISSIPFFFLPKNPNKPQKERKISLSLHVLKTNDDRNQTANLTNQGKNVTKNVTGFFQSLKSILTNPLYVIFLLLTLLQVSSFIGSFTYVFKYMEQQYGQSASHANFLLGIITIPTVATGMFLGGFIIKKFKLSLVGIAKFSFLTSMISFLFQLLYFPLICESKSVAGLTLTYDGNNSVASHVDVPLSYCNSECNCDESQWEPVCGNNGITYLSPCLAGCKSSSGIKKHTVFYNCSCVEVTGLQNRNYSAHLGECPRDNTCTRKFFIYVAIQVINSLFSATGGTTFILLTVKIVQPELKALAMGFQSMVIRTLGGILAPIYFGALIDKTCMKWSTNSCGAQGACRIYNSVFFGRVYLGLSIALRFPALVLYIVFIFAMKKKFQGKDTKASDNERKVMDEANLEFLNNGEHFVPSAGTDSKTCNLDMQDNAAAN

Hepatitis B virus = test: Antiviral activity against Hepatitis B virus infected in human HepG2.2.15 cells assessed as reduction in HBV pregenomic mRNA level at 1 uM measured after 5 days by Northern blot analysis; type: functional, organism-based; conditions: time 5.0 day
[3] = biological target: Terminal nucleotidyltransferase 4B (Homo sapiens) (UniProt Q8NDF8); test: Inhibition of Myc-DDK-tagged human PAPD5 expressed in HEK293 cells assessed as inhibition of poly-adenylation reaction using P32-labeled RNA oligonucleotides (5'-GCCUUUCAUCUCUAACUGCGAAAAAAAAAA-3') as substrate measured for 20 mins by phosphor imaging analysis; conditions: dose 0.37-10 µM
Chain of Terminal nucleotidyltransferase 4B (Homo sapiens) (Q8NDF8 whole entry): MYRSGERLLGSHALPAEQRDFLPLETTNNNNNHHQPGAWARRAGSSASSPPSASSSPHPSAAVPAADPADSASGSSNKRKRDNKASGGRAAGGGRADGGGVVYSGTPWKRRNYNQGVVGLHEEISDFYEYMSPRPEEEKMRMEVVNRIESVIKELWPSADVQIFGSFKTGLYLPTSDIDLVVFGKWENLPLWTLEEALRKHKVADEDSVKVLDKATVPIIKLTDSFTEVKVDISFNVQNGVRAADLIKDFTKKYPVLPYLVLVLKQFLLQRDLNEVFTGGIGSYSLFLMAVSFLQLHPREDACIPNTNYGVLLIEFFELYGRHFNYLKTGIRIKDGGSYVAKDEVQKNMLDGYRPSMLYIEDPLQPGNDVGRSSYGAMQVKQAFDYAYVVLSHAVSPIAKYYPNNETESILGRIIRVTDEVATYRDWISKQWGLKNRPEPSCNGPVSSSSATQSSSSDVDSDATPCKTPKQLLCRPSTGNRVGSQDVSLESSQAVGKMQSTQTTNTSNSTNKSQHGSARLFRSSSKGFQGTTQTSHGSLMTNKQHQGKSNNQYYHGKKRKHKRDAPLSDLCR

[4] = Apparent permeability of the compound across basolateral to apical side in human Caco-2 cells at 10 uM incubated for 1 hr; type: ADME, cell-based
[5] = Efflux ratio of apparent permeability in human Caco-2 cells at 10 uM incubated for 1 hr; type: ADME, cell-based
Cytochrome P450 2A6 = biological target: T2, Cytochrome P450 2A6 (Homo sapiens, UniProt P11509); test: Inhibition of CYP2A6 in human liver microsomes using coumarin as substrate preincubated for 5 mins followed by NADPH addition by LC-MS/MS analysis; type: ADME
T2 sequence (P11509 whole entry): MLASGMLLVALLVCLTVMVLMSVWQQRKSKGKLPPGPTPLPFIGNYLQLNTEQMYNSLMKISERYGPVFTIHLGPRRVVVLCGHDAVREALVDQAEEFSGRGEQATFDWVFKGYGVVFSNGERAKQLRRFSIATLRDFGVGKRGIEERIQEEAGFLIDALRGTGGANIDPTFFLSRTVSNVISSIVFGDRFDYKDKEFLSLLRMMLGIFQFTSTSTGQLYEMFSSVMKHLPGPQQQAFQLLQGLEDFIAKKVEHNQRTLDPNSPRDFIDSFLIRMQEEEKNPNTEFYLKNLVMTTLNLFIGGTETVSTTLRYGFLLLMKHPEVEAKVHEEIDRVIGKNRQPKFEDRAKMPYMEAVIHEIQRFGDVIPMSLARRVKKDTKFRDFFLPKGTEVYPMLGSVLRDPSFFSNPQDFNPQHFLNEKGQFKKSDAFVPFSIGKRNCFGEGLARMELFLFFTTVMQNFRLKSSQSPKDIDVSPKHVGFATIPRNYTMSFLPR

Cytochrome P450 2B6 = biological target: T3, Cytochrome P450 2B6 (Homo sapiens, UniProt P20813); test: Inhibition of CYP2B6 in human liver microsomes using bupropion as substrate preincubated for 5 mins followed by NADPH addition by LC-MS/MS analysis; type: ADME
T3 sequence (P20813 whole entry): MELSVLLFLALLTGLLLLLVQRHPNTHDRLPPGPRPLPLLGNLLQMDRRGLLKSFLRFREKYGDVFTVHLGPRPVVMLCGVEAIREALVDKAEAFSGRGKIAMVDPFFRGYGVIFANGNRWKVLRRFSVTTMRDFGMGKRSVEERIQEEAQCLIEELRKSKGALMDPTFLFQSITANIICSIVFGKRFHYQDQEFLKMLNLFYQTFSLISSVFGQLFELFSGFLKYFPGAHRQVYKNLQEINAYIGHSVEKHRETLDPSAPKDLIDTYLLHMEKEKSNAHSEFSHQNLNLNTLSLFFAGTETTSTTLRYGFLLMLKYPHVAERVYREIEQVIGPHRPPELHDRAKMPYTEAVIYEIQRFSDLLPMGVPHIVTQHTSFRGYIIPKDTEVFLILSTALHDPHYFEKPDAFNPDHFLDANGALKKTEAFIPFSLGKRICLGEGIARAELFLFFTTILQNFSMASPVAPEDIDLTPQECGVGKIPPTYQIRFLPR

Cytochrome P450 2C19 = Cytochrome P450 2C19 (Homo sapiens, UniProt P33261); test: Inhibition of CYP2C19 in human liver microsomes using mephenytoin as substrate preincubated for 5 mins followed by NADPH addition by LC-MS/MS analysis; type: ADME
Chain of Cytochrome P450 2C19 (P33261 whole entry): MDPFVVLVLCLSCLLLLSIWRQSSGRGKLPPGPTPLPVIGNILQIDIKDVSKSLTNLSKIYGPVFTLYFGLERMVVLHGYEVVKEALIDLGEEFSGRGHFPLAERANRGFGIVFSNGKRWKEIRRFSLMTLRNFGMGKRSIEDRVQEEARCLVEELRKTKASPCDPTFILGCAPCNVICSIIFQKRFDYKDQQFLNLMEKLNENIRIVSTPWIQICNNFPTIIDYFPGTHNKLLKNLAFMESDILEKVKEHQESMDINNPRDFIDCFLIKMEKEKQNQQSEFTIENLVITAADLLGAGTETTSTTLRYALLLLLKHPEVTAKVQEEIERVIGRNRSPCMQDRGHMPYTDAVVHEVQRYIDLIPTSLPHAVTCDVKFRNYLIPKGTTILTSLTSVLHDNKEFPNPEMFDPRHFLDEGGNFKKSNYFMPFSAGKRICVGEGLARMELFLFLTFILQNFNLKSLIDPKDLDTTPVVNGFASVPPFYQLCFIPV

Cytochrome P450 2D6 = Cytochrome P450 2D6 (Homo sapiens, UniProt P10635); test: Inhibition of CYP2D6 in human liver microsomes using dextromethorphan as substrate preincubated for 5 mins followed by NADPH addition by LC-MS/MS analysis; type: ADME
Chain of Cytochrome P450 2D6 (P10635 whole entry): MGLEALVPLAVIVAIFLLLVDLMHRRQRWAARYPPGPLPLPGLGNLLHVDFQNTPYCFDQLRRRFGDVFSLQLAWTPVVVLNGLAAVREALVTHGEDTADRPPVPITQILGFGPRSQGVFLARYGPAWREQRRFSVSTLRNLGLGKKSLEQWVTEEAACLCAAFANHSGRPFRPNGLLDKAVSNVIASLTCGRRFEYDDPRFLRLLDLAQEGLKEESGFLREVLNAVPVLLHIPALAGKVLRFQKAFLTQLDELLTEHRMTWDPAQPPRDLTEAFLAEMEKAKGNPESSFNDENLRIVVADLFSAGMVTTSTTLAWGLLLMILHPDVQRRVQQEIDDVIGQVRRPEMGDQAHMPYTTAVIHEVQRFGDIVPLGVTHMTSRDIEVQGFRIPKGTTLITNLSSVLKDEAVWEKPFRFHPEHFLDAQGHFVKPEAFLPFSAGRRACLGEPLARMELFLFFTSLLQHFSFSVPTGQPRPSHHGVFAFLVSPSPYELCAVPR

[6] = Volume of distribution at steady state in CD-1 mouse at 3 mg/kg, iv measured for 24 hrs by LC-MS/MS analysis; type: ADME, organism-based; conditions: in vivo, read-out: Vdss
[7] = Cmax in CD-1 mouse liver at 8 mg/kg, po measured for 24 hrs by LC-MS/MS analysis; type: ADME, organism-based; design: route oral, dose 8 mg/kg, time 24 hrs
[8] = AUC (last) in CD-1 mouse liver at 8 mg/kg, po measured for 24 hrs by LC-MS/MS analysis; type: ADME, organism-based; design: route oral, time 24 hrs, dose 8 mg/kg
[9] = Oral bioavailability in CD-1 mouse plasma at 8 mg/kg measured for 24 hrs by LC-MS/MS analysis; type: ADME, organism-based
[10] = Drug concentration in CD-1 mouse liver at 8 mg/kg, po measured after 1 hr by LC-MS/MS analysis; type: ADME, organism-based; conditions: read-out: Ct
[11] = Drug concentration in CD-1 mouse liver at 8 mg/kg, po measured after 4 hrs by LC-MS/MS analysis; type: ADME, organism-based; conditions: read-out: Ct
[12] = Drug concentration in CD-1 mouse liver at 8 mg/kg, po measured after 6 hrs by LC-MS/MS analysis; type: ADME, organism-based; conditions: read-out: Ct

Q: With `COc1cc2c(cc1OCCCCCCC(=O)O)C[C@@H](C(C)C)n1cc(C(=O)O)c(=O)cc1-2` as the compound, how does the logD at 1 h [1] read?
A: Its logD at 1 h is -0.65.

Q: What about the Ratio [2] of the same compound?
A: Its Ratio is 11.57.

Q: And the Activity (Hepatitis B virus)?
A: Its Activity is “Active”.

Q: And the inhibition [3]?
A: The inhibition was “Dose-Dependent Effect”.

Q: And the Papp B→A at 1 h, 10 µM [4]?
A: Its Papp B→A at 1 h, 10 µM is 2.06 ×10⁻⁶ cm/s.

Q: What about the efflux ratio at 1 h, 10 µM [5] of the same compound?
A: The efflux ratio at 1 h, 10 µM was 5.3.

Q: What about the IC50 (Cytochrome P450 2A6) of the same compound?
A: The IC50 was > 10 µM.

Q: And the IC50 (Cytochrome P450 2B6)?
A: Its IC50 is > 10 µM.

Q: What about the IC50 (Cytochrome P450 2C19) of the same compound?
A: The IC50 was > 10 µM.

Q: What about the IC50 (Cytochrome P450 2D6) of the same compound?
A: The IC50 was > 10 µM.

Q: What about the Vd [6] of the same compound?
A: The Vd was 3.26 L/kg.

Q: And the Cmax [7]?
A: The Cmax was 333 ng/mL.

Q: And the AUC(0-t) at 24 h [8]?
A: The AUC(0-t) at 24 h was 1310 ng·h/mL.

Q: And the bioavailability [9]?
A: The bioavailability was 5.1%.

Q: And the concentration at 1 h [10]?
A: The concentration at 1 h was 300 ng/mL and 660 nM.

Q: And the concentration at 4 h [11]?
A: Its concentration at 4 h is 138 ng/mL and 300 nM.

Q: And the concentration at 6 h [12]?
A: Its concentration at 6 h is 76 ng/mL and 170 nM.
